Each structure is given as a SMILES string.

One assay has as its system FLU A (PR/8/34). The assay can be described thus: Flu A Neuraminidase Antiviral Assay. The assay is classed as cell-based.
Details: not given
In the case of `CN1C(=O)c2c(O)c(=O)ccn2N2C1CCCC21CCCc2ccccc21` (single isomer, unassigned) [Compound 32A, 7-hydroxy-5-methyl-3,3′,4,4a,4′,5-hexahydro-2H,2′H-spiro[dipyrido[1,2-b:2′,1′-f][1,2,4]triazine-1,1′-naphthalene]-6,8-dione], the 50% effective concentration (EC50) is > 8100 nM.

In the case of `CCN1C(=O)c2c(O)c(=O)ccn2N2C1CCCC2(C)c1cccc(C2CC2)n1` (single isomer, unassigned) [Compound 55A, 1-(6-cyclopropylpyridin-2-yl)-5-ethyl-7-hydroxy-1-methyl-1,2,3,4,4a,5-hexahydrodipyrido[1,2-b:2′,1′-f][1,2,4]triazine-6,8-dione], the EC50 was > 810 nM. Same read-out and setting: to `CN1C(=O)c2c(O)c(=O)ccn2N2C(c3ccccc3)CCCCC12` (single isomer, unassigned) [Compound 57A, 4-hydroxy-6-methyl-11-phenyl-6a,7,8,9,10,11-hexahydro-3H-pyrido[1′,2′:1,6][1,2,4]triazino[2,3-a]azepine-3,5(6H)-dione] belongs 95.5 nM; to `CN1C(=O)c2c(O)c(=O)ccn2N2C(c3c(F)cccc3F)C(CC(F)(F)F)CCC12` (single isomer, unassigned) [Compound 123D, 1-(2,6-difluorophenyl)-7-hydroxy-5-methyl-2-(2,2,2-trifluoroethyl)-1,2,3,4,4a,5-hexahydrodipyrido[1,2-b:2′,1′-f][1,2,4] triazine-6,8-dione], 26.9 nM.

The compound `CN1C(=O)c2c(O)c(=O)ccn2N2C1CCCC2(C)c1ncc(F)cc1F` (single isomer, unassigned) [Compound 46A, 1-(3,5-difluoropyridin-2-yl)-7-hydroxy-1,5-dimethyl-1,2,3,4,4a,5-hexahydrodipyrido[1,2-b:2′,1′-f][1,2,4]triazine-6,8-dione] returned an EC50 of 40.3 nM. On the same count and under the same terms, to `CC1(c2ccccc2)CCCC2N(CC3COC3)C(=O)c3c(O)c(=O)ccn3N21` (single isomer, unassigned) [Compound 40B, 7-hydroxy-1-methyl-5-(oxetan-3-ylmethyl)-1-phenyl-1,2,3,4,4a,5-hexahydrodipyrido[1,2-b:2′,1′-f][1,2,4]triazine-6,8-dione] belongs > 8100 nM. Same read-out and setting: under `CN1C(=O)c2c(O)c(=O)ccn2N2C1CCC(O)C2(C)c1ccccc1` (centres unmarked) [Compound 137C, 2,7-dihydroxy-1,5-dimethyl-1-phenyl-1,2,3,4,4a,5-hexahydrodipyrido[1,2-b:2′,1′-f][1,2,4]triazine-6,8-dione] stands > 8100 nM; under `CCN1C(=O)c2c(O)c(=O)ccn2N2C(c3ccccc3)C(CC3(C(F)(F)F)CC3)CCC12` (single isomer, unassigned) [Compound 97A, 5-ethyl-7-hydroxy-1-phenyl-2-((1-(trifluoromethyl)cyclopropyl)methyl)-1,2,3,4,4a,5-hexahydrodipyrido[1,2-b:2′,1′-f][1,2,4]triazine-6,8-dione], > 810 nM; under `CN1C(=O)c2c(O)c(=O)ccn2N2C(c3ccccc3)C(c3cc(F)c(F)cc3F)CCC12` (single isomer, unassigned) [Compound 86B, 7-hydroxy-5-methyl-1-phenyl-2-(2,4,5-trifluorophenyl)-1,2,3,4,4a,5-hexahydrodipyrido[1,2-b:2′,1′-f][1,2,4]triazine-6,8-dione], > 810 nM. Same read-out and setting: to `CN1C(=O)c2c(O)c(=O)ccn2N2C(c3ccccc3)C(CC(F)F)CCC12` (single isomer, unassigned) [Compound 129B, 2-(2,2-difluoroethyl)-7-hydroxy-5-methyl-1-phenyl-1,2,3,4,4a,5-hexahydrodipyrido[1,2-b:2′,1′-f][1,2,4]triazine-6,8-dione] belongs 196 nM.

The assay is the same for the next values; noted with them: MDCK, 48 h.
As for `CN1C(=O)c2c(O)c(=O)ccn2N2C(c3ccccc3C(F)(F)F)CCCC12` (single isomer, unassigned) [Compound 14A, 7-hydroxy-5-methyl-1-(2-(trifluoromethyl)phenyl)-1,2,3,4,4a,5-hexahydrodipyrido[1,2-b:2′,1′-f][1,2,4]triazine-6,8-dione], the EC50 is > 8100 nM.

These data come from patent US20240018145A1, “[…]-DEPENDENT EN[…] TREATING OR […]” (priority 2020, published 2024).
